Experimental data as given in patent US8207136B2, “Nucleoside compounds and methods of use thereof” (The Board of Trustees of the University of Illinois, priority 2005, dated 2012).

Experiments:
P-TEFb (Cdk9/Cyclin T1) [1] = biological target: T1, P-TEFb (Cdk9/Cyclin T1) (Homo sapiens, UniProt P50750); experiment: P-TEFb kinase assay with GST-CTD as substrate; assay type: biochemical; details: 30° C., 1 hour
T1 construct: gift from Dr. Nekhai (Howard University)
Description: Purified P-TEFb (Cdk9/Cyclin T1) protein and GST-CTD (GST-tagged C-terminal domain of RNA polymerase II) expression plasmid were gifts from Dr. Nekhai (Howard University). GST-CTD protein was expressed in BL21 E. coli (Stratagene) and purified using a GST protein purification kit (Amersham Biosciences). The kinase assay was performed at 30° C. for 1 hour in the presence of P-TEFb with or without the addition of ARC. The phosphorylation levels of GST-CTD were detected with anti-phospho RNA polymerase II antibody (4735; Cell Signaling).
It is known that DRB and flavopiridol inhibit transcription by blocking the kinase activity of P-TEFb, which in turn leads to decreased phosphorylation of RNA polymerase II C-terminal domain (CTD). To determine if ARC operates by a similar mechanism, a kinase assay was performed with purified P-TEFb using GST-CTD (GST tagged C-terminal domain of RNA polymerase II) as the substrate. […] To evaluate this effect in vivo, HCT-116 cells were treated with ARC for 3 hours and analyzed levels of phospho-RNA polymerase II by immunoblotting. While the total amount of RNA polymerase II remained unchanged, phosphorylation of the RNA polymerase II CTD decreased upon ARC treatment (FIG. 2D), consistent with the in vitro kinase assay.

P-TEFb (Cdk9/Cyclin T1) [2] = biological target: T1, P-TEFb (Cdk9/Cyclin T1); experiment: P-TEFb kinase assay with p53 as substrate; assay type: biochemical; details: different concentrations, 30° C., 30 min
Description: For P-TEFb kinase assays with p53 as a substrate, purified p53 protein (Protein One) was used. Twenty-five nanograms of p53 protein along with [γ^32P]ATP was used in reactions either in the presence or absence of P-TEFb, with or without the addition of ARC. The reaction was carried out at 30° C. for 30 min. The samples were resolved on an SDS-PAGE and transferred on to a PVDF membrane and exposed to X-ray film to detect phosphorylation of p53.
In order to evaluate this activity, an in vitro kinase assay was performed with purified p53 protein and P-TEFb in the presence of different concentrations of ARC.

[3] = system: SV40-transformed MRC-5 human fetal lung fibroblasts; experiment: Apoptosis assays in SV40-transformed MRC-5 fibroblasts; assay type: cell-based; details: 24 hours
Description: (§1) Immunoblotting was performed as described with antibodies specific for p53 (sc-126 HRP; Santa Cruz), hdm2 (sc-965; Santa Cruz), p21 (556431; BD Pharmingen), Sp1 (sc-59; Santa Cruz), survivin (sc-10811; Santa Cruz), phospho RNA polymerase II (4735; Cell Signaling), total RNA polymerase II (8WG16; a gift from Dr. Schlegel, University of Illinois at Chicago), α-tubulin (T9026; Sigma), cleaved caspase-3 (9664; Cell Signaling), caspase-9 (9502; Cell Signaling) and β-actin (A5441; Sigma) antibodies.
Apoptosis was detected either by DAPI (4′,6-diamidino-2-phenylindole) staining or by Flow Cytometry after PI (Propidium Iodide) staining. For DAPI staining, all treatments (DMSO or ARC) were done in triplicates in 6-well plates and cells were stained with DAPI and visualized by fluorescent microscopy. Four random fields for each sample were photographed and at least 500 cells per field were counted to estimate apoptosis. The data is represented as mean±Standard deviation (sd).
The ability of ARC to induce apoptosis in wild type and SV40-transformed MRC-5 human fetal lung fibroblasts was evaluated. Twenty-four hours after treatment with ARC, transformed fibroblasts underwent robust apoptosis (around 50% and 70%, respectively, with 5 and 10 μM of ARC) (FIGS. 4A and B). […] The transformed cell types may be more dependent on the survivin levels for their survival than their wild type counterparts and thus the reduction in these levels could be lethal to these cells.

[4] = system: LIM1215 colon cancer, AGS gastric cancer and HepG2 liver cancer cells; experiment: Cleaved caspase-3 immunoblot in cancer cell lines of different origin; assay type: cell-based, human; details: 48 hours
Description: as §1

[5] = system: leukemia cell lines CEM, HL-60, NB4 and U937; experiment: TMRE staining and flow cytometry of leukemia cells; assay type: cell-based; details: 5 μM, 24 hours
Description: FIG. 7. ARC induces mitochondrial injury in leukemia cells. Different leukemia cells were either treated with DMSO (gray) or 5 μM ARC (white) for 24 hours, stained with TMRE (tetramethyl rhodamine ethyl ester) and subjected to flow cytometry. CEM cells are shown in panel (A), HL-60 in panel (B), NB4 in panel (C) and U937 in panel (D). The shift in the peak from right (DMSO; gray) to left (ARC-treated; white) is due to the lower intake of the dye caused by the loss in mitochondrial potential.
In order to further probe the mechanism of ARC-induced apoptosis, whether or not ARC causes mitochondrial injury was investigated. Permeabilization of mitochondria, followed by cytochrome c release has previously been observed for transcriptional inhibitor flavopiridol. For this analysis, leukemia cell lines CEM, HL-60, NB4 and U937 were treated with either DMSO or ARC. […] It is well known that the Bcl2 family members (eg., Bcl-2, Bcl-XL, Mcl-1) protect the mitochondrial integrity, thereby acting in an anti-apoptotic manner. It is possible that ARC modulates the expression of one or more of these proteins to cause mitochondrial injury.

[6] = system: HIV Tat-mediated transcription; experiment: HIV Tat-mediated transcription in HeLa MAGI cells; assay type: cell-based, human immunodeficiency virus (HIV); details: 18 hours
Description: FIG. 10. ARC has antiviral activity against HIV (human immunodeficiency virus) in a cell culture model. HeLa MAGI cells were infected with Adeno-Tat and treated with different amounts of ARC for 18 hours after which, MTT was added to measure cell viability and B-Gal expression was measured by ONPG assay. B-Gal expression is indicative of HIV Tat transactivation ability. Assays were done in quadruplicates.

[7] = Preliminary toxicity studies (NCI/DTP) in mice; assay type: in vivo; details: as high as 200 mg/Kg, 5-day period, B6D2FI mice
Description: Similarly, p21 may also act in an anti-apoptotic fashion by inducing cell-cycle arrest or by inhibiting pro-apoptotic molecules such as procaspase-3 and apoptosis signal-regulating kinasel (ASK1). […] The fact that ARC represses both survivin and p21 makes a strong case for consideration of ARC as a potential anti-tumor agent. This is further supported by the observation that ARC was >10-fold more efficient in inducing apoptosis than the other nucleoside analog DRB (FIG. 5F). This is especially intriguing because, as shown herein, ARC and DRB repress global transcription to similar extent (FIG. 2A). […] Preliminary toxicity studies from NCI/DTP indicate that concentrations as high as 200 mg/Kg were non-toxic to B6D2FI mice during a 5-day period.

T1 sequence (P50750 whole entry, species assumed): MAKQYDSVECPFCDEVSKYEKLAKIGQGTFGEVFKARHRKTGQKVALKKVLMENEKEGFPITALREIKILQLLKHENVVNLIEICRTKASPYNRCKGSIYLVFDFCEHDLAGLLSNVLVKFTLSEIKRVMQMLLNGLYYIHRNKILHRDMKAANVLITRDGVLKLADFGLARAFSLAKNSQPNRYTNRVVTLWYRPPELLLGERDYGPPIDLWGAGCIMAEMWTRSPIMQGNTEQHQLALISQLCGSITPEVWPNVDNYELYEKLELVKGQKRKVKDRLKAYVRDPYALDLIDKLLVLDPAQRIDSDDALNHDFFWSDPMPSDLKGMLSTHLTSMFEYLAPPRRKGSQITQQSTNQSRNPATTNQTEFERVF
T1 sequence (O60563 whole entry partner, species assumed): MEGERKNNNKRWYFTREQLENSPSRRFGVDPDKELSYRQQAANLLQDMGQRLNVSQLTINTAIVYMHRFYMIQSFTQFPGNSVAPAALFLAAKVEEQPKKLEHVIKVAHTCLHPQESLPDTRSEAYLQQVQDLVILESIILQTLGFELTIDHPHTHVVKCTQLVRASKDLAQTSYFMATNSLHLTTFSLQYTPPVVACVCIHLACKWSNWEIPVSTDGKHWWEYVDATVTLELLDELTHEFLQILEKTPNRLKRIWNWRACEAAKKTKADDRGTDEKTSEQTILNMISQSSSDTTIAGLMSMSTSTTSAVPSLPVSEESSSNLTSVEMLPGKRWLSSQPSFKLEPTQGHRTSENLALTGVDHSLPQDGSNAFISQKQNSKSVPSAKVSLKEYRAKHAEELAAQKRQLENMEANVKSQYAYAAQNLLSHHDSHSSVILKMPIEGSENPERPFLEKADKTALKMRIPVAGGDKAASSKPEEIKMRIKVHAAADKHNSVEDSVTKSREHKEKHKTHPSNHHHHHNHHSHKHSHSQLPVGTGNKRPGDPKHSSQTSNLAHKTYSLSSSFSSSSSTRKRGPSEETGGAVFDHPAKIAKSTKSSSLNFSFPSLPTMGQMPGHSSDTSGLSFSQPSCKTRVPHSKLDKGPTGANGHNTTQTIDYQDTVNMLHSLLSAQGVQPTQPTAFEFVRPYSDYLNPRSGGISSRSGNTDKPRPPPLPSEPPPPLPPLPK

Question: Which “phosphorylation of GST-CTD by P-TEFb” value (P-TEFb (Cdk9/Cyclin T1) [1]) does the source give for NNc1c(C(N)=O)c2c(N)ncnc2n1[C@@H]1O[C@H](CO)[C@@H](O)[C@H]1O [ARC, 4-amino-6-hydrazino-7-beta-D-ribofuranosyl-7H-pyrrolo[2,3-d]-pyrimidine-5-carboxamide] here?
Answer: Its value is “potently decreased the phosphorylation of GST-CTD”.

Question: What about the “phosphorylation of p53 by P-TEFb” value (P-TEFb (Cdk9/Cyclin T1) [2]) of the same compound?
Answer: Its value is “decreased in a dose-dependent manner”.

Question: What about the “apoptosis (DAPI staining)” value ([3]; 5 μM) of the same compound?
Answer: Its value is “around 50%”.

Question: What about the “apoptosis (DAPI staining)” value ([3]; 10 μM) of the same compound?
Answer: Its value is ~70%.

Question: What about the “cleaved caspase-3” value [3] of the same compound?
Answer: Its value is “appearance of cleaved caspase-3 was observed”.

Question: What about the survivin levels ([3]; wild type and SV40-transformed MRC-5 fibroblasts) of the same compound?
Answer: Its survivin levels is “further reduced”.

Question: And the “cleavage of caspase-3” value ([4]; HepG2 with stable knock-down of p53, 20 μM)?
Answer: Its value is “showed cleavage of caspase-3”.

Question: What about the “cleavage of caspase-3” value ([4]; LIM1215, AGS and HepG2 cells, 20 μM) of the same compound?
Answer: Its value is “cleavage of caspase-3 were detected”.

Question: And the “mitochondrial potential (TMRE)” value [5]?
Answer: Its value is “mitochondrial depolarization”.

Question: What about the “HIV Tat-mediated transcription (B-Gal expression)” value ([6]; HeLa MAGI cells infected with Adeno-Tat) of the same compound?
Answer: The value was “efficiently inhibited HIV Tat-mediated transcription in a dose-dependent manner”.

Question: What about the “rate of transcription versus cell viability (MTT)” value ([6]; HeLa MAGI cells) of the same compound?
Answer: The value was “affected more than the viability of cells”.

Question: And the toxicity [7]?
Answer: The toxicity was “non-toxic”.
